Experimental data from patent publication US20240099994A1, “LONG-ACTING INJECTABLE FORMULATIONS OF KETAMINE PAMOATE SALTS” (ALAR PHARMACEUTICAL INC., priority 2019, published 2024).
Where a name gives a salt, the structure may show the parent alone. Read-outs that look alike come from different tables or passages of the source.

How the values were obtained:
[1] = Intrinsic dissolution rate, rotating disk method (USP Chapter 1087); assay type: physicochemical; settings: for Intrinsic dissolution rate: 50 rpm, average of three samples; for BCS solubility classification: pH 7.4 medium
Method: The intrinsic dissolution rate of the crystal and amorphous forms of ketamine pamoate salts was determined by using the intrinsic dissolution rotating disk method described in Chapter 1087 of the U.S. Pharmacopeia under the conditions of medium pH as 1.2, 4.5, 6.8 or 7.4, medium volume as 900 mL, rotating speed as 50 rpm, medium temperature as 37° C., and detection wavelength as 210 nm. The results were shown in Tables 7 and 8 and FIGS. 27 to 29.

[2] = system: DEX-induced depression-like animal model; assay: Forced swimming test (FST) in dexamethasone (DEX)-induced depression-like animal model; assay type: in vivo, ICR mice; settings: DEX-treated mice, SC, 120 mg/kg ketamine free-base; for Immobility time on FST: 1 day after administration
Method: (§1) FIG. 43 is a diagram illustrating the protocol of dexamethasone (DEX)-induced depression-like animal model to evaluate the antidepressant effects of ketamine HCl (KET), R, S-ketamine pamoate salt (KEP), S-ketamine pamoate salt (S-KEP), and R-ketamine pamoate salt (R-KEP). ICR mice were intraperitoneally injected with saline or DEX at postnatal day 1 to 3 (P1 to P3) with dose decrement of 0.5 mg/kg, 0.3 mg/kg, and 0.1 mg/kg, respectively. The drugs for each group or saline group were administered subcutaneously at day 35 (P35, i.e., dosing day 0, D0), and the forced swimming test (FST) were conducted every 10 days from dosing day 1 (D1, P36) to P98. Evaluation of sedation behavior was also conducted by sedation rating scale from the time immediately post injection to dosing day 28 after drug administration.
Depression-like animal model induced by dexamethasone (hereinafter abbreviated as DEX) was used to evaluate the antidepressant effects of ketamine HCl (KET), R, S-ketamine pamoate salt (KEP), S-ketamine pamoate salt (S-KEP), and R-ketamine pamoate salt (R-KEP) at equivalent dose (120 mg/kg ketamine free-base). According to literature, depressive-like behaviors were observed on juvenile mice and adult mice which neonatally exposed to DEX. Protocol of this example was shown in FIG. 43 and described in detail below.
Neonatal ICR mice were intraperitoneally injected with saline or DEX on postnatal day 1, 2, and 3 (P1 to P3) at doses of 0.5 mg/kg, 0.3 mg/kg, and 0.1 mg/kg, respectively. The mice received saline were called as Control group, and the mice received DEX were divided into the groups of KET, KEP, S-KEP, R-KEP and Saline (n=10 to 14 mice in each group). The mice of KET, KEP, S-KEP, and R-KEP groups were subcutaneously injected with KET formulation, the formulation AS04 comprising KEP, the formulation AS06 comprising S-KEP, and the formulation AS07 comprising R-KEP at postnatal day 35, respectively. The KET formulation was 20% (w/w) ketamine HCl dissolved in 0.9% saline. The formulations AS04, AS06 and AS07 were prepared in Example 18. Saline group mice were subcutaneously injected with equal volumes of 0.9% saline.
Antidepressant effects were evaluated by forced swimming test (FST), which performed about every 10 days from the first day (P36) to the 63rd day (P98) after drug administration. All groups of mice were trained for swimming before drug administration. During the FST, mice were individually placed into 5 L glass cylinders (height 27 cm, diameter 18 cm) filled with 4 L of water (23±1° C.). The total duration of immobility time during 5 minutes of FST was observed. Results were presented as mean±SEM. Student's t-test was analyzed with the Saline group (DEX-treated mouse group injected with saline) versus the other groups at each time point. *p<0.05, **p<0.01, ***p<0.001, and ****p<0.0001 indicate significant differences compared to the Saline group.

ICR mice = assay: Sedation behavior by rodent sedation rating scale; assay type: in vivo; settings: SC, 120 mg/kg ketamine free-base; for Sedation behavior (rodent sedation rating scale): immediately post administration to 28 days
Method: as §1
Furthermore, sedation behavior was also evaluated by rodent sedation rating scale (Table 28) immediately post drug administration to 28 days in this study.

[3] = Solubility test (USP guidance) in different pH media
[4] = in water; cited from earlier work
[5] = pH 7.4, 1% polysorbate 20 in medium, 37° C.
[6] = pH 4.5, 1% polysorbate 20 in medium, 37° C.
[7] = pH 6.8, 1% polysorbate 20 in medium, 37° C.

SMILES: CN[C@]1(c2ccccc2Cl)CCCCC1=O [S-ketamine pamoate salt (Crystal, ratio 2:1)]
- Intrinsic dissolution rate [1, 5]: 0.027 mg/min/cm^2
- BCS solubility classification [1]: Low
- Antidepressant effects on FST after single injection [2]: rapid-onset antidepressant effects
- Sedation or other ketamine-related psychotomimetic effects and nervous system disorders post administration (ICR mice): would not occur
- Solubility ([3]; pH 1.2 medium, listed as S-ketamine pamoate salt (Ratio 2:1) Crystal): 1240 µg/mL
- Solubility ([3]; pH 4.5 medium, listed as S-ketamine pamoate salt (Ratio 2:1) Crystal): 1610 µg/mL
- Solubility ([3]; pH 6.8 medium, listed as S-ketamine pamoate salt (Ratio 2:1) Crystal): 390 µg/mL
- Solubility ([3]; pH 7.4 medium, listed as S-ketamine pamoate salt (Ratio 2:1) Crystal): 500 µg/mL

SMILES: CNC1(c2ccccc2Cl)CCCCC1=O.CNC1(c2ccccc2Cl)CCCCC1=O.O=C(O)c1cc2ccccc2c(Cc2c(O)c(C(=O)O)cc3ccccc23)c1O [R,S-ketamine pamoate salt (Crystal, ratio 2:1)] [R, S-ketamine pamoate salt]
- Intrinsic dissolution rate ([1]; pH 1.2, 37° C.): 0.095 mg/min/cm^2
- Intrinsic dissolution rate [1, 6]: 0.005 mg/min/cm^2
- Intrinsic dissolution rate [1, 7]: 0.011 mg/min/cm^2
- Intrinsic dissolution rate [1, 5]: 0.012 mg/min/cm^2
- Antidepressant effects on FST after single injection [2]: rapid-onset antidepressant effects
- Immobility time on FST [2]: reduced the immobility time
- Sedation or other ketamine-related psychotomimetic effects and nervous system disorders post administration (ICR mice): would not occur
- Sedation behavior (rodent sedation rating scale) (ICR mice): normal behavior
- Solubility ([3]; pH 1.2 medium, listed as R, S-ketamine pamoate salt): 1680 µg/mL
- Solubility ([3]; pH 4.5 medium, listed as R,S-ketamine pamoate salt (Ratio 2:1) Crystal): 1080 µg/mL
- Solubility ([3]; pH 6.8 medium): 160 µg/mL
- Solubility ([3]; pH 7.4 medium, listed as R,S-ketamine pamoate salt (Ratio 2:1) Crystal): 220 µg/mL

SMILES: CN[C@]1(c2ccccc2Cl)CCCCC1=O [S-ketamine pamoate salt (Amorphous, ratio 2:1)]
- Intrinsic dissolution rate [1, 5]: 0.026 mg/min/cm^2
- BCS solubility classification [1]: Low
- Solubility ([3]; pH 1.2 medium, listed as S-ketamine pamoate salt (Ratio 2:1) Amorphous): 1000 µg/mL
- Solubility ([3]; pH 4.5 medium, listed as S-ketamine pamoate salt (Ratio 2:1) Amorphous): 840 µg/mL
- Solubility ([3]; pH 6.8 medium, listed as S-ketamine pamoate salt (Ratio 2:1) Amorphous): 480 µg/mL
- Solubility ([3]; pH 7.4 medium, listed as S-ketamine pamoate salt (Ratio 2:1) Amorphous): 580 µg/mL

SMILES: CNC1(c2ccccc2Cl)CCCCC1=O.Cl (stereo not drawn) [R-ketamine HCl, R-ketamine hydrochloride, reference compound]
- Intrinsic dissolution rate [1, 5]: 2.356 mg/min/cm^2
- BCS solubility classification [1]: High

SMILES: CNC1(c2ccccc2Cl)CCCCC1=O.O=C(O)c1cc2ccccc2c(Cc2c(O)c(C(=O)O)cc3ccccc23)c1O [R- or S-ketamine pamoate salt]
- Solubility ([3]; pH 1.2 medium): 720 µg/mL
- Solubility ([3]; pH 4.5 medium): 450 µg/mL
- Solubility ([3]; pH 6.8 medium): 70 µg/mL
- Solubility ([3]; pH 7.4 medium): 80 µg/mL

SMILES: CN[C@@]1(c2ccccc2Cl)CCCCC1=O [R-ketamine pamoate salt (Crystal, ratio 2:1)]
- Intrinsic dissolution rate [1, 5]: 0.025 mg/min/cm^2
- BCS solubility classification [1]: Low
- Antidepressant effects on FST after single injection [2]: rapid-onset antidepressant effects
- Sedation or other ketamine-related psychotomimetic effects and nervous system disorders post administration (ICR mice): would not occur
- Solubility ([3]; pH 1.2 medium, listed as R-ketamine pamoate salt (Ratio 2:1) Crystal): 1090 µg/mL
- Solubility ([3]; pH 4.5 medium, listed as R-ketamine pamoate salt (Ratio 2:1) Crystal): 1180 µg/mL
- Solubility ([3]; pH 6.8 medium, listed as R-ketamine pamoate salt (Ratio 2:1) Crystal): 400 µg/mL
- Solubility ([3]; pH 7.4 medium, listed as R-ketamine pamoate salt (Ratio 2:1) Crystal): 510 µg/mL

SMILES: CN[C@@]1(c2ccccc2Cl)CCCCC1=O [R-ketamine pamoate salt (Amorphous, ratio 2:1)]
- Intrinsic dissolution rate [1, 5]: 0.021 mg/min/cm^2
- BCS solubility classification [1]: Low
- Solubility ([3]; pH 1.2 medium, listed as R-ketamine pamoate salt (Ratio 2:1) Amorphous): 1150 µg/mL
- Solubility ([3]; pH 4.5 medium, listed as R-ketamine pamoate salt (Ratio 2:1) Amorphous): 990 µg/mL
- Solubility ([3]; pH 6.8 medium, listed as R-ketamine pamoate salt (Ratio 2:1) Amorphous): 640 µg/mL
- Solubility ([3]; pH 7.4 medium, listed as R-ketamine pamoate salt (Ratio 2:1) Amorphous): 950 µg/mL

SMILES: CNC1(c2ccccc2Cl)CCCCC1=O.CNC1(c2ccccc2Cl)CCCCC1=O.O=C(O)c1cc2ccccc2c(Cc2c(O)c(C(=O)O)cc3ccccc23)c1O [R,S-ketamine pamoate salt (Amorphous, ratio 2:1)] [R, S-ketamine pamoate salt]
- Intrinsic dissolution rate [1, 5]: 0.024 mg/min/cm^2
- BCS solubility classification [1]: Low
- Solubility ([3]; pH 1.2 medium, listed as R,S-ketamine pamoate salt (Ratio 2:1) Amorphous): 1310 µg/mL
- Solubility ([3]; pH 4.5 medium, listed as R,S-ketamine pamoate salt (Ratio 2:1) Amorphous): 870 µg/mL
- Solubility ([3]; pH 6.8 medium): 160 µg/mL
- Solubility ([3]; pH 7.4 medium, listed as R,S-ketamine pamoate salt (Ratio 2:1) Amorphous): 180 µg/mL

SMILES: CNC1(c2ccccc2Cl)CCCCC1=O (stereo not drawn) [R,S-ketamine HCl, R, S-ketamine hydrochloride, reference compound]
- Intrinsic dissolution rate ([1]; pH 1.2, 37° C.): 5.329 mg/min/cm^2
- Intrinsic dissolution rate [1, 6]: 3.729 mg/min/cm^2
- Intrinsic dissolution rate [1, 7]: 2.918 mg/min/cm^2
- Intrinsic dissolution rate [1, 5]: 1.740 mg/min/cm^2
- Antidepressant effects on FST after single injection [2]: rapid-onset antidepressant effects
- Immobility time on FST [2]: reduced the immobility time
- Time to full recovery from sedation-related behavior post administration (ICR mice): 2 h
- Sedation behavior (rodent sedation rating scale) (ICR mice): mild sedation-related behavior
- Solubility [4]: > 200000 µg/mL

SMILES: CN[C@]1(c2ccccc2Cl)CCCCC1=O.Cl [S-ketamine HCl, S-ketamine hydrochloride, reference compound]
- Intrinsic dissolution rate [1, 5]: 2.248 mg/min/cm^2
- BCS solubility classification [1]: High
